The values that follow come from patent publication US4180669A, “2-(N-phenethyl-4-piperidino)-5-pentyl resorcinol” (Abbott Laboratories, priority 1978, dated 1979).

Counter-ions that a name gives are not always drawn. Like-named read-outs stand apart in the source and are kept apart here.

This test concerns pylorous ligated rats. In words: Antisecretory activity in the pylorous ligated rat model. The conditions noted are these: for inhibition in vivo at 50 mg/kg / inhibition in vivo at 12.5 mg/kg / inhibition in vivo at 25 mg/kg / inhibition in vivo at 100 mg/kg: Rattus norvegicus, 4 h; for inhibition in vivo at 12.5 mg/kg: oral dose 12.5 mg/kg; for inhibition in vivo at 25 mg/kg: oral dose 25 mg/kg; for inhibition in vivo at 100 mg/kg: oral dose 100 mg/kg. It is filed as in vivo, male Sprague-Dawley rats. How it is done: To determine the antisecretory activity of the present compounds, the compounds were tested for such activity in pylorous ligated rats. In this test, male Sprague-Dawley rats weighing 170-190 g. were fasted for 24 hours. Water was allowed ad libitum. All groups were comprised of six rats. […] Water was withheld after drug administration. Ligation of the pyrloric sphincter was performed under ether anesthesia, and four hours after ligation the animals were sacrificed with CO2. The stomach was dissected out and the contents were expelled into a graduated centrifuge tube. The samples were centrifuged and the volume, less debris, was measured. Sample aliquots were titrated with 0.05 N NaOH to determine acid concentration. Pepsin activity was determined on an auto analyzer using hemoglobin as the substrate by the method of Anson. Group means for volume, acid and pepsin concentrations, and pepsin outputs were compared for statistically significant differences from control means by Student's t-test.

The mark [1] stands for this setting: oral dose 50 mg/kg, negative sign means stimulated, read-out: Percent inhibition of pepsin.
Where [2] appears, read: oral dose 50 mg/kg, negative sign means stimulated, read-out: Percent inhibition of pepsin output.
Where [3] appears, read: oral dose 50 mg/kg, read-out: Percent inhibition of acid output.
The mark [4] stands for this setting: oral dose 50 mg/kg, read-out: Percent inhibition of acidity.
Setting [5] is: oral dose 50 mg/kg, read-out: Percent inhibition of volume.
The mark [6] stands for this setting: read-out: Percent inhibition of acid output.
The mark [7] stands for this setting: read-out: Percent inhibition of acidity.
Where [8] appears, read: read-out: Percent inhibition of volume.
Where [9] appears, read: negative sign means stimulated, read-out: Percent inhibition of pepsin.
The mark [10] stands for this setting: read-out: Percent inhibition of pepsin output.
[11] abbreviates: oral dose 50 mg/kg, negative sign means stimulated.

For `CC(C)C(C)c1cc(O)c(C2=CCN(C)CC2)c(O)c1` (centres unmarked) [Example VII, 2-(N-Methyl-1,2,3,6-tetrahydro-4-pyridyl)-5-(1,2-dimethylpropyl) resorcinol hydrochloride], the inhibition in vivo at 50 mg/kg is, setting by setting: under setting [1], -24.6%; under setting [2], -9.9%; under setting [3], 15.8%; under setting [4], 7.1%; under setting [5], 9.5%.

Take `CCCCCc1cc(O)c(C2CCN(C)CC2)c(O)c1` [XVIII, 2-(N-Methyl-4-piperidino)-5-pentyl resorcinol hydrochloride]: the inhibition in vivo at 50 mg/kg runs as follows: under setting [1], 5.6%; under setting [2], 1.4%; under setting [3], 4.5%; under setting [4], 8.2%; under setting [5], -5.2%.

For `CCCCCc1cc(O)c(C2CC3CCC(C2)N3C)c(O)c1` (centres unmarked) [XXIV, 2-(N-Methyl-2,6-ethylidene-4-piperidino)-5-pentyl resorcinol hydrochloride], the inhibition in vivo at 50 mg/kg is, setting by setting: under setting [1], 21%; under setting [2], 22.2%; under setting [3], 0.9%; under setting [4], -2.5%; under setting [5], 2.8%.

As to `CCCCCC(C)C(C)c1cc(O)c(C2=CCN(C)CC2)c(OC)c1` (centres unmarked) [Example XXVI, 2-(N-Methyl-1,2,3,6-tetrahydro-4-pyridyl)-3-methoxy-5-(1,2-dimethylheptyl)phenol hydrochloride], the inhibition in vivo at 50 mg/kg under setting [1] worked out at 12.6%; the inhibition in vivo at 50 mg/kg under setting [2] is 8.6%; the inhibition in vivo at 50 mg/kg under setting [3] was 53.7%; the inhibition in vivo at 50 mg/kg under setting [4] is 53.1%; the inhibition in vivo at 50 mg/kg under setting [5] was -0.3%.

Consider `CCCCCC(C)C(C)c1cc(O)c(C2=CCN(CCc3ccccc3)CC2)c(O)c1` (centres unmarked) [Example XX, 2-(N-Phenethyl-1,2,3,6-tetrahydro-4-pyridyl)-5-(1,2-dimethylheptyl) resorcinol hydrochloride], for which the inhibition in vivo at 12.5 mg/kg under setting [6] is 9.7%, the inhibition in vivo at 12.5 mg/kg under setting [7] was 8.5% and the inhibition in vivo at 12.5 mg/kg under setting [8] turned out to be 2.6%. For the same compound, the inhibition in vivo at 25 mg/kg came out at 17.1% under setting [6], 1.7% under setting [7] and 16.9% under setting [8]. Besides, the inhibition in vivo at 50 mg/kg by setting is: under setting [3], 47.8%; under setting [4], 10.7%; under setting [5], 42.8%. Also, the inhibition in vivo at 100 mg/kg is, setting by setting: under setting [6], 51.2%; under setting [7], 19.5%; under setting [8], 44.8%.

As to `CCCCCC(C)C(C)c1cc(O)c(C2=CCN(C)CC2)c(O)c1` (centres unmarked) [Example X, 2-(N-Methyl-1,2,3,6-tetrahydro-4-pyridyl)-5-(1,2-dimethylheptyl) resorcinol], the inhibition in vivo at 12.5 mg/kg by setting is: under setting [9], 23.4%; under setting [6], 10.8%; under setting [7], 13.1%; under setting [10], 22.6%; under setting [8], -2.8%. In addition, the inhibition in vivo at 25 mg/kg runs as follows: under setting [9], 45.1%; under setting [6], 22.9%; under setting [7], 20.9%; under setting [10], 46.4%; under setting [8], 1.4%. For the same compound, the inhibition in vivo at 50 mg/kg is, setting by setting: under setting [1], 41.5%; under setting [2], 48%; under setting [3], 69.3%; under setting [4], 66.8%; under setting [5], 7.7%. Further, the inhibition in vivo at 100 mg/kg amounted to 63% under setting [9]; 69% under setting [6]; 68.4% under setting [7]; 63.2% under setting [10]; 1.7% under setting [8].

Take `CC(C)c1cc(O)c(C2=CCN(Cc3ccccc3)CC2)c(O)c1` [Example XI, 2-(N-Benzyl-1,2,3,6-tetrahydro-4-pyridyl)-5-isopropyl resorcinol hydrochloride]: the inhibition in vivo at 50 mg/kg under setting [1] is -36%; the inhibition in vivo at 50 mg/kg under setting [2] is 47.1%; the inhibition in vivo at 50 mg/kg under setting [3] turned out to be 68.2%; the inhibition in vivo at 50 mg/kg under setting [4] was found to be 22.8%; the inhibition in vivo at 50 mg/kg under setting [5] was 63.8%.

Regarding `CCCCCc1cc(O)c(C2CCN(CCc3ccccc3)CC2)c(O)c1` [Example XXI, 2-(N-Phenethyl-4-piperidino)-5-pentyl resorcinol hydrochloride], the inhibition in vivo at 12.5 mg/kg under setting [9] turned out to be 11.4%; the inhibition in vivo at 12.5 mg/kg under setting [6] worked out at 0.5%; the inhibition in vivo at 12.5 mg/kg under setting [7] was -4%; the inhibition in vivo at 12.5 mg/kg under setting [10] amounted to 19.9%; the inhibition in vivo at 12.5 mg/kg under setting [8] was 6.5%. For the same compound, the inhibition in vivo at 25 mg/kg amounted to 11.4% under setting [9]; 32.7% under setting [6]; 5.8% under setting [7]; 41.4% under setting [10]; 31.2% under setting [8]. The inhibition in vivo at 50 mg/kg is, setting by setting: under setting [1], -6.2%; under setting [2], 56.4%; under setting [3], 64.1%; under setting [4], 15%; under setting [5], 58.2%. For the same compound, the inhibition in vivo at 100 mg/kg by setting is: under setting [9], -12.7%; under setting [6], 66.6%; under setting [7], 16.1%; under setting [10], 60.6%; under setting [8], 61.8%.

Take `CC(C)c1cc(O)c(C2=CCNCC2)c(O)c1` [XII, 2-(1,2,3,6-Tetrahydro-4-pyridyl)-5-isopropyl resorcinol hydrochloride]: the inhibition in vivo at 50 mg/kg runs as follows: under setting [1], -3.9%; under setting [2], 12.8%; under setting [3], 16.6%; under setting [4], 1.4%; under setting [5], 15.5%.

Take `CCCCCC(C)C(C)c1cc(O)c(C2CCNCC2)c(OC)c1` (centres unmarked) [Example XXX, 2-(4-Piperidino)-3-methoxy-5-(1,2-dimethylheptyl)phenol hydrochloride]: the inhibition in vivo at 50 mg/kg was 34.7% under setting [3], 39.9% under setting [4] and -8.9% under setting [5].

With “2-(N-Methyl-1,2,3,4-tetrahydro-4-pyridyl)-5-(methyl) resorcinol [IX]”, under “oral dose 50 mg/kg”, the “Percent inhibition of acid output” value is 31.7%, the “Percent inhibition of acidity” value was 12.1% and the “Percent inhibition of volume” value is given as 21.9%. Moreover, under setting [11], the “Percent inhibition of pepsin” value was -7.2% and the “Percent inhibition of pepsin output” value is 17.0%.

Take `CCCCCc1cc(O)c(C2=CCN(CCc3ccccc3)CC2)c(O)c1` [Example XIX, 2-(N-Phenethyl-1,2,3,6-tetrahydro-4-pyridyl)-5-pentyl resorcinol hydrochloride]: the inhibition in vivo at 50 mg/kg is 6.9% under setting [1]; 31.7% under setting [2]; 27.3% under setting [3]; 4.2% under setting [4]; 25.5% under setting [5].

`CCCCCc1cc(O)c(C2=CCN(C)CC2)c(O)c1` [Example VIII, 2-(N-Methyl-1,2,3,6-tetrahydro-4-pyridyl)-5-pentyl resorcinol hydrochloride]: the inhibition in vivo at 50 mg/kg by setting is: under setting [1], -2%; under setting [2], 55.9%; under setting [3], 74.4%; under setting [4], 41.5%; under setting [5], 57.4%.

Take `CCCCCC(C)C(C)c1cc(O)c(C2=CCNCC2)c(O)c1` (centres unmarked) [Example XV, 2-(1,2,3,6-Tetrahydro-4-pyridyl)-5-(1,2-dimethylheptyl) resorcinol hydrochloride]: the inhibition in vivo at 50 mg/kg under setting [1] came to 53.8%; the inhibition in vivo at 50 mg/kg under setting [2] stood at 54.3%; the inhibition in vivo at 50 mg/kg under setting [3] was determined as 22.8%; the inhibition in vivo at 50 mg/kg under setting [4] amounted to 24.3%; the inhibition in vivo at 50 mg/kg under setting [5] is -1.4%. In addition, the inhibition in vivo at 100 mg/kg runs as follows: under setting [9], 34.5%; under setting [6], 52.8%; under setting [7], 43.6%; under setting [10], 41.4%; under setting [8], 12.9%.
